Data from patent US5965578A, “Inhibitors of farnesyl-protein transferase” (Merck & Co., Inc., priority 1997, dated 1999).
pIC50: −log10 of the molar value. Structures can show the parent of a compound that is named as a salt. Where two headings read alike, the source gives them in different places.

Target: T1, human FPTase (Homo sapiens, UniProt P49354+P49356)
T1 construct: made in house
Test: In vitro inhibition of ras farnesyl transferase (human FPTase assay)
Format: biochemical
Protocol: Assays of farnesyl-protein transferase. […] Reactions were initiated with FPTase and stopped with 1 ml of 1.0 M HCL in ethanol. […] Purified compounds were dissolved in 100% dimethyl sulfoxide (DMSO) and were diluted 20-fold into the assay. Percentage inhibition is measured by the amount of incorporation of radioactivity in the presence of the test compound when compared to the amount of incorporation in the absence of the test compound.
Human FPTase activity was assayed as described above with the exception that 0.1% (w/v) polyethylene glycol 20,000, 10 μM ZnCl2 and 100 nM Ras-CVIM were added to the reaction mixture. Reactions were performed for 30 min., stopped with 100 μl of 30% (v/v) trichloroacetic acid (TCA) in ethanol and processed as described above for the bovine enzyme.

| Compound | pIC50 | pIC50 (human FPTase, 100 nM Ras-CVIM, [3H]-FPP, 30 min, read-out: IC50 of inhibitory activity against human FPTase) |
| --- | --- | --- |
| N#Cc1ccc(Cc2cncn2CC2CCN(c3ccccc3)C(=O)C2)cc1 (centres unmarked) [Example 1, 4-[5-(4-Cyanobenzyl)imidazol-1-ylmethyl]-1-phenyl-2-piperidinone hydrochloride] | ≥ 5.00 |  |
| CCOC(=O)C1(Cc2cccc(C)c2)CCN(Cc2cncn2Cc2ccc(C#N)cc2)CC1=O (centres unmarked) [Example 6, Ethyl 1-[3-(4-cyanobenzyl)-3H-imidazol-4-ylmethyl]-3-oxo-4-(3-methylbenzyl)piperidine-4-carboxylate trifluoroacetate salt] |  | ≥ 5.00 |
